Literature values in US9961901B2, “Mectin and milbemycin nanoparticle formulations” (priority 2013, dated 2018).
Where two headings read alike, the source gives them in different places.

How the values were obtained:
[1] = 20° C.
[2] = not given; remark: listed apart in the source

| Molecule | Solubility, Methanol [1] | Solubility, n-heptane ([1]; n-heptane) | Solubility, Water [1] | Aqueous Photolysis DT50 (pH 5) | Octanol-Water Coefficient Log P [2] | Solubility, Acetone ([1]; acetone) | Solubility, Ethyl Acetate ([1]; ethyl acetate) | Aqueous Photolysis DT50 (pH 7) |
| --- | --- | --- | --- | --- | --- | --- | --- | --- |
| milbemycin | Methanol: 251,000 mg/L | n-heptane: 5,060 mg/L | Water 3.6 mg/L | DT50: 3 d at pH 5 (aqueous | Log P: 6.8 |  |  |  |
| CC[C@H](C)[C@H]1O[C@]2(C=C[C@@H]1C)C[C@@H]1C[C@@H](C/C=C(\C)[C@@H](O[C@H]3C[C@H](OC)[C@@H](O[C@H]4C[C@H](OC)[C@@H](O)[C@H](C)O4)[C@H](C)O3)[C@@H](C)/C=C/C=C3\CO[C@@H]4[C@H](O)C(C)=C[C@@H](C(=O)O1)[C@]34O)O2 [abamectin] |  |  | Water: 1.21 mg/L |  | Log P: 4.4 | Acetone: 72,000 mg/L | Ethyl Acetate: 160,000 mg/L | DT50: 1.5 d at pH 7 |
| emamectin | Methanol: 2700 g/L |  | Water: 24 mg/L |  | Log P: 5.0 |  |  | DT50: 32 d at pH 7 |
